{"source": "patent US20250163052A1", "about": "“cGAS INHIBITORS AND USES THEREOF” (Cornell University, priority 2022, published 2025)", "key": {"P301S mice [1]": {"tested_on": "P301S mice", "test": "Immunofluorescent staining of hippocampal synapses (PSD-95, vGAT) in P301S mice", "assay_type": "in vivo, mouse", "settings": "hippocampal CA1, 150 mg/kg diet for three months", "from_the_text": "(§1) P301S transgenic mice (https://www.jax.org/strain/008169) were crossed with cGas knockout mice (https://www.jax.org/strain/026554) to generate littermate P301S cGas+/+ mice, P301S cGas+/− and littermate P301S cGas−/− mice, as well as non-transgenic littermates. Mice of both sexes were used behavioral, histological and biochemical analyses. Mice underwent behavioral testing at 7 to 8 months of age and had not been used for any other experiments. At 9 to 10 months of age, the same mice were used for pathology and RNA-seq studies. For TDI-6570 in vivo treatment, P301S and non-transgenic littermate mice at 6-7 months were used for diet experiments and were assayed for behavior and histology at 9-10 months. Mice were housed under specific pathogen-free conditions under a 12 h light-dark cycle and all mouse protocols were approved by the Institutional Animal Care and Use Committee, University of California, San Francisco.\nHemibrains from transcardially perfused mice were placed in 4% paraformaldehyde for 48 h, followed by 30% sucrose PBS for 48 h at 4° C. Sections were cut coronally at 40 μm using a freezing microtome (Leica) and placed in cryoprotective medium at −20° C. until use. 8-10 free floating sections per mouse. […] Quantification was done using ImageJ software (NIH) using percentage area based on thresholding determined using negative and positive controls. […]"}, "[2]": {"test": "Metabolic stability in mouse liver microsomes"}, "P301S mice [3]": {"tested_on": "P301S mice", "test": "Novel object recognition test in P301S mice fed TDI-6570 diet", "assay_type": "in vivo, mouse", "settings": "150 mg/kg diet for three months", "from_the_text": "as §1\nFor experiments involving TDI-6570 treatment, male P301S and Non-transgenic littermates fed with TDI-6570 or control diet were used.\nMice were habituated to opaque open field arenas (40×40 cm) for two 10-minute trials spaced on the two days leading up to object recognition. […] An experimenter blind to the groups manually scored the time mice spent exploring each object. Preference was calculated based on the total time an individual mouse spent exploring both objects. […]"}, "m-cGAS": {"target": "m-cGAS (Mus musculus, UniProt Q8C6L5)", "sequence (Q8C6L5 whole entry)": "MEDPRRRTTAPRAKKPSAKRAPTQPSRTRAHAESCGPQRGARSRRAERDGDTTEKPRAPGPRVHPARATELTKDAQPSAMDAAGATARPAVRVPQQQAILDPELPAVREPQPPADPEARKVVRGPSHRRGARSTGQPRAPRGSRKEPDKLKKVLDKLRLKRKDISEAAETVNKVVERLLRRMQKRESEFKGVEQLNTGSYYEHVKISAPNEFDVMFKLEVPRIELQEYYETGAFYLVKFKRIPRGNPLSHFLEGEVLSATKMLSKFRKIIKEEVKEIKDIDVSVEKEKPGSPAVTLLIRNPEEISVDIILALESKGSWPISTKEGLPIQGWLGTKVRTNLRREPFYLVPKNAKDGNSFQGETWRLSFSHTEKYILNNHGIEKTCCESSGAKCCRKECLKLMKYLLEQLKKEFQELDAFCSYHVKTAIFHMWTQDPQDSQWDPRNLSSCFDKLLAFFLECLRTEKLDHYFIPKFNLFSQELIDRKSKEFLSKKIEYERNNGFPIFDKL", "test": "Cell-free mouse cGAS enzyme inhibition assay (ATP depletion, Kinase-Glo Max)", "assay_type": "biochemical", "settings": "mouse cGAS"}, "[4]": {"test": "Protein binding in mouse brain homogenates", "assay_type": "in vitro ADME"}}}
{"compound": "Cn1c2c(c3ccc(Cl)c(F)c31)CN(C(=O)CO)CC2", "note": "[TDI-6570, reference compound]", "values": [{"measurement": "P301S-dependent excitatory synapse loss (PSD-95)", "setting": "P301S mice [1]", "result": "rescued"}, {"measurement": "P301S-dependent inhibitory synapse loss (vGAT)", "setting": "P301S mice [1]", "result": "rescued"}, {"measurement": "Remaining (NCF = 60 min)", "setting": "[2]; mouse liver microsomes, 60 min, no co-factor (no NADPH)", "result": 100.0, "unit": "%"}, {"measurement": "Remaining (T = 60 min)", "setting": "[2]; mouse liver microsomes, 60 min with NADPH", "result": 0.0, "unit": "%"}, {"measurement": "CLint(liver)", "setting": "[2]; mouse liver microsomes, scaled from CLint(mic)", "result": 997.5, "unit": "mL/min/kg"}, {"measurement": "CLint(mic)", "setting": "[2]; mouse, liver microsomes", "result": 251.9, "unit": "µL/min/mg"}, {"measurement": "T½", "setting": "[2]; mouse, liver microsomes", "result": 5.5, "unit": "min"}, {"measurement": "Defect in recognizing the novel object (novel object recognition test)", "setting": "P301S mice [3]", "result": "rescued"}, {"measurement": "IC50", "setting": "m-cGAS", "result": 12.8, "unit": "nM"}, {"measurement": "% Recovery", "setting": "[4]", "result": 89.39, "unit": "%"}, {"measurement": "LogK", "setting": "[4]", "result": 2.38}, {"measurement": "% Remaining at 6 hr", "setting": "[4]; 6 hr", "result": 94.51, "unit": "%"}]}
